{"source": "paper PMC5095062", "about": "“The novel choline kinase inhibitor ICL-CCIC-0019 reprograms cellular metabolism and inhibits cancer cell growth” (Oncotarget, 2016)", "assay_in_all_cases": "Kinase selectivity screen", "format_in_all_cases": "biochemical", "key": {"EIF2AK3": {"target": "EIF2AK3 (Homo sapiens, UniProt Q9NZJ5)", "sequence (Q9NZJ5 30-1116)": "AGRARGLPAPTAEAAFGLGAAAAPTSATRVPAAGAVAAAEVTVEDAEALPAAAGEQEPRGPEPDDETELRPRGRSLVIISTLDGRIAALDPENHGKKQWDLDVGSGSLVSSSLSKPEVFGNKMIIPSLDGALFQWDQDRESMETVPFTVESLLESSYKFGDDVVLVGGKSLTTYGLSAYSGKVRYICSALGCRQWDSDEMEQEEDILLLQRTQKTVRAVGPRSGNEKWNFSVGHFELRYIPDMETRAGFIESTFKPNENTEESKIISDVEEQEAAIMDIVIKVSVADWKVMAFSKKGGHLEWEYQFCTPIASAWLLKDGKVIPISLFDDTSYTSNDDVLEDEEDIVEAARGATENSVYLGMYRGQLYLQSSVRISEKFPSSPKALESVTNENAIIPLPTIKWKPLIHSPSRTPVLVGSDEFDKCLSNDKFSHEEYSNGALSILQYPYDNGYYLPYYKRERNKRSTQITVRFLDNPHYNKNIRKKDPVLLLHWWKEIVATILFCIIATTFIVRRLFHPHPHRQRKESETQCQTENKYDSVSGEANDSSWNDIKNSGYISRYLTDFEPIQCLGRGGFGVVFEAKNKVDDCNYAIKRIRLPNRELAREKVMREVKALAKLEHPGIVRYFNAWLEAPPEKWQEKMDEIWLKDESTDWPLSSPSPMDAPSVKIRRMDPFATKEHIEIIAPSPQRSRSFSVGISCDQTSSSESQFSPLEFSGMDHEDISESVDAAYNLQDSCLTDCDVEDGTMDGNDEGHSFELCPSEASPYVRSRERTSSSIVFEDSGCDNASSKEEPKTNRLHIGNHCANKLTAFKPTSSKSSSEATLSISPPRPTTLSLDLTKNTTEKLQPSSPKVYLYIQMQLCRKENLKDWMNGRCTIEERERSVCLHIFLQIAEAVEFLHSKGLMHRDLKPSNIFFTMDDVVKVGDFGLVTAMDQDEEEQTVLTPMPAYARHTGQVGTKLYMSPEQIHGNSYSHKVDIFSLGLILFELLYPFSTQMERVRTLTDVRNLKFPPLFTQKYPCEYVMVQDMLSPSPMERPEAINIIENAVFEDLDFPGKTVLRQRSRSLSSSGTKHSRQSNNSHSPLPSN", "conditions": "EIF2AK3, 10 μM", "description": "(§1) The substantially less demanding synthesis of ICL-CCIC-0019 compared with MN58B bears additional advantages. […] This consequently diminished intracellular PCho concentration, and importantly, the incorporation of [^3H]-choline into lipids (Figure 1D). […] To assess kinase specificity, ICL-CCIC-0019 was tested against a panel of 131 human kinases (Figure 1E and Supplementary Table S1). […] Inhibition greater than 20% was attained for insulin-like growth factor 1 (IGF-1R, 35 ± 7% inhibition), mitogen-activated protein kinase-activated protein kinase 3 (MAPKAP-K3, 33 ± 6%), extracellular signal regulated kinase 8 (ERK8, 31 ± 4%), ribosomal S6 kinase 1 (RSK1, 22 ± 6%), and v-erb-a erythroblastic leukemia viral oncogene homolog 4 (HER4, 21 ± 7%)."}, "IRAK1": {"target": "IRAK1 (Homo sapiens, UniProt P51617)", "conditions": "IRAK1, 10 μM", "description": "as §1"}, "MINK1": {"target": "MINK1 (Homo sapiens, UniProt Q8N4C8)", "conditions": "MINK1, 10 μM", "description": "as §1"}, "GSK3b": {"target": "GSK3b (Homo sapiens, UniProt P49841)", "description": "as §1"}, "p38a MAPK": {"target": "p38a MAPK (Homo sapiens, UniProt Q16539)", "description": "as §1"}, "SYK": {"target": "SYK (Homo sapiens, UniProt P43405)", "description": "as §1"}, "TSSK1": {"target": "TSSK1 (Homo sapiens, UniProt Q9BXA7)", "conditions": "TSSK1, 10 μM", "description": "as §1"}, "ROCK 2": {"target": "ROCK 2 (Homo sapiens, UniProt O75116)", "conditions": "ROCK 2, 10 μM", "description": "as §1"}, "CSK": {"target": "CSK (Homo sapiens, UniProt P41240)", "sequence (P41240 whole entry)": "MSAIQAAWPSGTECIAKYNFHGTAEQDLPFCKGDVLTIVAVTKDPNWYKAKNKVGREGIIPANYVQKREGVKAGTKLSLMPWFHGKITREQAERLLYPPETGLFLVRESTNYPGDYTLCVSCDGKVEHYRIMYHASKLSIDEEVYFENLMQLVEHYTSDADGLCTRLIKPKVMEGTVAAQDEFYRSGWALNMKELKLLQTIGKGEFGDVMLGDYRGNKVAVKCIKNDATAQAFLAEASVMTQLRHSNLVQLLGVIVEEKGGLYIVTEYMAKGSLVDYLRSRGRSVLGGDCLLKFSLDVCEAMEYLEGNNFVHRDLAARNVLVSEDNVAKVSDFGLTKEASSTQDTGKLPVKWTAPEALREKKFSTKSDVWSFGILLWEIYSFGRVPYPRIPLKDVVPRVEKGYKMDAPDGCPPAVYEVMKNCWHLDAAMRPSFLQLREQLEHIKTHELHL", "description": "as §1"}, "CHK1": {"target": "CHK1 (Homo sapiens, UniProt O14757)", "conditions": "CHK1, 10 μM", "description": "as §1"}, "Aurora B": {"target": "Aurora B (Homo sapiens, UniProt Q96GD4)", "description": "as §1"}, "HIPK2": {"target": "HIPK2 (Homo sapiens, UniProt Q9H2X6)", "conditions": "HIPK2, 10 μM", "description": "as §1"}, "CK2": {"target": "CK2 (Homo sapiens, UniProt P68400)", "conditions": "CK2, 10 μM", "description": "as §1"}, "BTK": {"target": "BTK (Homo sapiens, UniProt Q06187)", "description": "as §1"}, "PAK2": {"target": "PAK2 (Homo sapiens, UniProt Q13177)", "conditions": "PAK2, 10 μM", "description": "as §1"}, "SmMLCK": {"target": "SmMLCK (Homo sapiens, UniProt Q15746)", "description": "as §1"}, "JAK2": {"target": "JAK2 (Homo sapiens, UniProt O60674)", "conditions": "JAK2, 10 μM", "description": "as §1"}, "RSK1": {"target": "RSK1 (Homo sapiens, UniProt Q15418)", "sequence (Q15418 whole entry)": "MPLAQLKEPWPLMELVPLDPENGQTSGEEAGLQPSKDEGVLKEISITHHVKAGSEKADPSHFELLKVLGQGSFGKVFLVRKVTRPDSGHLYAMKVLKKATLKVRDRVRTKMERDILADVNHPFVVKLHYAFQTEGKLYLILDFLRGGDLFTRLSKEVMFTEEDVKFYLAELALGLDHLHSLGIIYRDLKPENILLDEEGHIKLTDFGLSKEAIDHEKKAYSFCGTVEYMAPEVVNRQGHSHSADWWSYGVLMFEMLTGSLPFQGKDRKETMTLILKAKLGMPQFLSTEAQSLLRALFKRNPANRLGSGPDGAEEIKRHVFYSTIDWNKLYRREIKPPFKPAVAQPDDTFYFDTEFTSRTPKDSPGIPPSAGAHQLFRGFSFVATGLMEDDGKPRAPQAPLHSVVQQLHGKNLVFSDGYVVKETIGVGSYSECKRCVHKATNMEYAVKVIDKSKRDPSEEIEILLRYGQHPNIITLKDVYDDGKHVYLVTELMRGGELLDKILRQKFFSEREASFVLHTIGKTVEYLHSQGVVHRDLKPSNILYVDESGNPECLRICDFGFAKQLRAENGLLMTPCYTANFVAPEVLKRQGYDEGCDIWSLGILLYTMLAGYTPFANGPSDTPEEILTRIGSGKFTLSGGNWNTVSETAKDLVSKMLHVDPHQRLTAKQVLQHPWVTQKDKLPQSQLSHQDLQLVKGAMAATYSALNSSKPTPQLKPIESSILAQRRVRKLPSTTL", "conditions": "RSK1, 10 μM", "description": "as §1"}, "DDR2": {"target": "DDR2 (Homo sapiens, UniProt Q16832)", "sequence (Q16832 22-855)": "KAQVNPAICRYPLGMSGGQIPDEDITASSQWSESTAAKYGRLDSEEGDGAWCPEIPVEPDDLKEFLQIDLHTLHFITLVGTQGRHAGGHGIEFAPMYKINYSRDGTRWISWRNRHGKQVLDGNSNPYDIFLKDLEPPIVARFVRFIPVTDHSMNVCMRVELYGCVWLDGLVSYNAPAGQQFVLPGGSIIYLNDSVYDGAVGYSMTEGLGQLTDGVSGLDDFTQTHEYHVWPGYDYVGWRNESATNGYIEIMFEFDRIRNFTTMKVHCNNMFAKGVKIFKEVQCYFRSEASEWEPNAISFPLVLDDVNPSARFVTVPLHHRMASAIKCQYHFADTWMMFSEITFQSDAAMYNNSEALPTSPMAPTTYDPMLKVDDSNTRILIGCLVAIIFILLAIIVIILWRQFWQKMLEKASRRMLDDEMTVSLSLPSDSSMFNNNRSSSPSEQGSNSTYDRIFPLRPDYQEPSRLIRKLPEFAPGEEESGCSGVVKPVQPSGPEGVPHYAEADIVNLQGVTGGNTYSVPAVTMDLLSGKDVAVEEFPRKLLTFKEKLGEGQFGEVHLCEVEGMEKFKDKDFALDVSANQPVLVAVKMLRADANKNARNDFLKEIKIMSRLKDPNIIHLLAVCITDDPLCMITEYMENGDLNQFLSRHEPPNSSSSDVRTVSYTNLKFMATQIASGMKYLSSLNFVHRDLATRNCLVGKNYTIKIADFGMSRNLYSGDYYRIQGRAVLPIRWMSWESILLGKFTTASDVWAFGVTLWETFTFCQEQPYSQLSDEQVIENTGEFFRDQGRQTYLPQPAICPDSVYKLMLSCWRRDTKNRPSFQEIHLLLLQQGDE", "conditions": "DDR2, 10 μM", "description": "as §1"}, "ZAP70": {"target": "ZAP70 (Homo sapiens, UniProt P43403)", "sequence (P43403 whole entry)": "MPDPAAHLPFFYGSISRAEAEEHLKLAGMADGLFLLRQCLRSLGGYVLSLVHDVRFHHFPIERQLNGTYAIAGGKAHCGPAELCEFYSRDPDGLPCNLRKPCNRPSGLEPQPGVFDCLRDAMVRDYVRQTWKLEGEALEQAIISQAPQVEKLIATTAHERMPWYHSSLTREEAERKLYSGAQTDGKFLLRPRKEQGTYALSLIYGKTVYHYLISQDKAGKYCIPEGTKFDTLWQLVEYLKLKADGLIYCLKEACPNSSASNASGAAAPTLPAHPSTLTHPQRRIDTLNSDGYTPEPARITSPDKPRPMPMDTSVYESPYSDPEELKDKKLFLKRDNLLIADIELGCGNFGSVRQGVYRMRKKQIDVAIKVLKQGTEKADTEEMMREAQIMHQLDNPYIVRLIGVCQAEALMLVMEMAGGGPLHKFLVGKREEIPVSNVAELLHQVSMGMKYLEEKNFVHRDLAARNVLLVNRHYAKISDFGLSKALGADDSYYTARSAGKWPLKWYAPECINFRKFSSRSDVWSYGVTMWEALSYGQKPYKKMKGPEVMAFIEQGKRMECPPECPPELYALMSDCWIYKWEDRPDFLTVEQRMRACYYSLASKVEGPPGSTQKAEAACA", "conditions": "ZAP70, 10 μM", "description": "as §1"}, "p38d MAPK": {"target": "p38d MAPK (Homo sapiens, UniProt O15264)", "description": "as §1"}, "JNK2": {"target": "JNK2 (Homo sapiens, UniProt P45984)", "conditions": "JNK2, 10 μM", "description": "as §1"}, "CLK2": {"target": "CLK2 (Homo sapiens, UniProt P49760)", "conditions": "CLK2, 10 μM", "description": "as §1"}, "MAPKAP-K2": {"target": "MAPKAP-K2 (Homo sapiens, UniProt P49137)", "conditions": "MAPKAP-K2, 10 μM", "description": "as §1"}, "JNK3": {"target": "JNK3 (Homo sapiens, UniProt P53779)", "sequence (P53779 whole entry)": "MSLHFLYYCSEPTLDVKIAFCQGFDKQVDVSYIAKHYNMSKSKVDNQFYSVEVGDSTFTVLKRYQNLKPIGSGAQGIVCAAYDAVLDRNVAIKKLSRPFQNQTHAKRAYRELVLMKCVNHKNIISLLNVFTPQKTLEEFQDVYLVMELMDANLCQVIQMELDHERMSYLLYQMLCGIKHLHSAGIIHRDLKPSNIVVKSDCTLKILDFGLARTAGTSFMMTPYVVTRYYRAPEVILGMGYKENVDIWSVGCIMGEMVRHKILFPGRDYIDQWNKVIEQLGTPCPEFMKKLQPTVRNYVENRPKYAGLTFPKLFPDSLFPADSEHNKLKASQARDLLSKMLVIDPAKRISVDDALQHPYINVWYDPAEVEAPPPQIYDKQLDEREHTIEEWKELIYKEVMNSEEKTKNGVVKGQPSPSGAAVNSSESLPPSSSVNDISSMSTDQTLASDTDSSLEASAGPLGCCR", "conditions": "JNK3, 10 μM", "description": "as §1"}, "PIM2": {"target": "PIM2 (Homo sapiens, UniProt Q9P1W9)", "conditions": "PIM2, 10 μM", "description": "as §1"}, "MARK2": {"target": "MARK2 (Homo sapiens, UniProt Q7KZI7)", "conditions": "MARK2, 10 μM", "description": "as §1"}, "TTK": {"target": "TTK (Homo sapiens, UniProt P33981)", "description": "as §1"}, "BRSK2": {"target": "BRSK2 (Homo sapiens, UniProt Q8IWQ3)", "conditions": "BRSK2, 10 μM", "description": "as §1"}, "MARK1": {"target": "MARK1 (Homo sapiens, UniProt Q9P0L2)", "conditions": "MARK1, 10 μM", "description": "as §1"}, "IKKe": {"target": "IKKe (Homo sapiens, UniProt Q14164)", "sequence (Q14164 whole entry)": "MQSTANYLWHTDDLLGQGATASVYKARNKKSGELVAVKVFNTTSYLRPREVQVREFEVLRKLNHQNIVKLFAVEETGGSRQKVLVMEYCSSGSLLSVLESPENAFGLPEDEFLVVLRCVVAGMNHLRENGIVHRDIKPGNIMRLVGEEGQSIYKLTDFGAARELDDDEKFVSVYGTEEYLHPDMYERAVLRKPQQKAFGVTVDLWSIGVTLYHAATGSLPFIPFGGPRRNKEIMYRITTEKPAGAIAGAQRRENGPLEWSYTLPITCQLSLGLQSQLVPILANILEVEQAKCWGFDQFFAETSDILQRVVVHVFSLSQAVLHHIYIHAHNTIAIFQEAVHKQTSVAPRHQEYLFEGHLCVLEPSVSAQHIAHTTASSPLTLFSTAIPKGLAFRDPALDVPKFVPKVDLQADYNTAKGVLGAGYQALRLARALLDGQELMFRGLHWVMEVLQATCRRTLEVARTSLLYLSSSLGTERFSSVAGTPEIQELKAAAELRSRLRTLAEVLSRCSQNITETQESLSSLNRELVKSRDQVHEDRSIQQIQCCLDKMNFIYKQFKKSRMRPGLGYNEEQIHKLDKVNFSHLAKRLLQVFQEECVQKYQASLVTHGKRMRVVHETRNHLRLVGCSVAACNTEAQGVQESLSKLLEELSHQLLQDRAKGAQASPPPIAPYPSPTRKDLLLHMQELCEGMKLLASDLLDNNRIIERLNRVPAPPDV", "description": "as §1"}, "MARK4": {"target": "MARK4 (Homo sapiens, UniProt Q96L34)", "conditions": "MARK4, 10 μM", "description": "as §1"}, "LKB1": {"target": "LKB1 (Homo sapiens, UniProt Q15831)", "conditions": "LKB1, 10 μM", "description": "as §1"}, "MNK1": {"target": "MNK1 (Homo sapiens, UniProt Q9BUB5)", "conditions": "MNK1, 10 μM", "description": "as §1"}, "FGF-R1": {"target": "FGF-R1 (Homo sapiens, UniProt P11362)", "conditions": "FGF-R1, 10 μM", "description": "as §1"}, "CDK9-Cyclin T1": {"target": "CDK9-Cyclin T1 (Homo sapiens, UniProt P50750)", "conditions": "CDK9-Cyclin T1, 10 μM", "description": "as §1"}}, "data": [{"smiles": "CN(C)c1cc[n+](CCCCCCCCCCCC[n+]2ccc(N(C)C)cc2)cc1", "note": "[ICL-CCIC-0019]", "values": [{"measurement": "remaining activity at 10 µM", "setting": "EIF2AK3", "result": 97, "unit": "%"}, {"measurement": "remaining activity at 10 µM", "setting": "IRAK1", "result": 89, "unit": "%"}, {"measurement": "remaining activity at 10 µM", "setting": "MINK1", "result": 100, "unit": "%"}, {"measurement": "remaining activity at 10 µM", "setting": "GSK3b", "result": 94, "unit": "%"}, {"measurement": "remaining activity at 10 µM", "setting": "p38a MAPK", "result": 108, "unit": "%"}, {"measurement": "remaining activity at 10 µM", "setting": "SYK", "result": 92, "unit": "%"}, {"measurement": "remaining activity at 10 µM", "setting": "TSSK1", "result": 107, "unit": "%"}, {"measurement": "remaining activity at 10 µM", "setting": "ROCK 2", "result": 97, "unit": "%"}, {"measurement": "remaining activity at 10 µM", "setting": "CSK", "result": 96, "unit": "%"}, {"measurement": "remaining activity at 10 µM", "setting": "CHK1", "result": 97, "unit": "%"}, {"measurement": "remaining activity at 10 µM", "setting": "Aurora B", "result": 102, "unit": "%"}, {"measurement": "remaining activity at 10 µM", "setting": "HIPK2", "result": 104, "unit": "%"}, {"measurement": "remaining activity at 10 µM", "setting": "CK2", "result": 86, "unit": "%"}, {"measurement": "remaining activity at 10 µM", "setting": "BTK", "result": 131, "unit": "%"}, {"measurement": "remaining activity at 10 µM", "setting": "PAK2", "result": 107, "unit": "%"}, {"measurement": "remaining activity at 10 µM", "setting": "SmMLCK", "result": 104, "unit": "%"}, {"measurement": "remaining activity at 10 µM", "setting": "JAK2", "result": 90, "unit": "%"}, {"measurement": "inhibition at 10 µM", "setting": "RSK1", "result": "22 ± 6", "unit": "%"}, {"measurement": "remaining activity at 10 µM", "setting": "RSK1", "result": 78, "unit": "%"}, {"measurement": "remaining activity at 10 µM", "setting": "DDR2", "result": 85, "unit": "%"}, {"measurement": "remaining activity at 10 µM", "setting": "ZAP70", "result": 102, "unit": "%"}, {"measurement": "remaining activity at 10 µM", "setting": "p38d MAPK", "result": 100, "unit": "%"}, {"measurement": "remaining activity at 10 µM", "setting": "JNK2", "result": 100, "unit": "%"}, {"measurement": "remaining activity at 10 µM", "setting": "CLK2", "result": 101, "unit": "%"}, {"measurement": "remaining activity at 10 µM", "setting": "MAPKAP-K2", "result": 89, "unit": "%"}, {"measurement": "remaining activity at 10 µM", "setting": "JNK3", "result": 92, "unit": "%"}, {"measurement": "remaining activity at 10 µM", "setting": "PIM2", "result": 103, "unit": "%"}, {"measurement": "remaining activity at 10 µM", "setting": "MARK2", "result": 86, "unit": "%"}, {"measurement": "remaining activity at 10 µM", "setting": "TTK", "result": 101, "unit": "%"}, {"measurement": "remaining activity at 10 µM", "setting": "BRSK2", "result": 94, "unit": "%"}, {"measurement": "remaining activity at 10 µM", "setting": "MARK1", "result": 103, "unit": "%"}, {"measurement": "remaining activity at 10 µM", "setting": "IKKe", "result": 123, "unit": "%"}, {"measurement": "remaining activity at 10 µM", "setting": "MARK4", "result": 95, "unit": "%"}, {"measurement": "remaining activity at 10 µM", "setting": "LKB1", "result": 100, "unit": "%"}, {"measurement": "remaining activity at 10 µM", "setting": "MNK1", "result": 101, "unit": "%"}, {"measurement": "remaining activity at 10 µM", "setting": "FGF-R1", "result": 92, "unit": "%"}, {"measurement": "remaining activity at 10 µM", "setting": "CDK9-Cyclin T1", "result": 95, "unit": "%"}]}]}
